Experimental data from patent US8013006B2.
Where two headings read alike, the source gives them in different places.

System: HCV replicon
Assay: microbe, parasite or virus in culture
Type: cell-based
[1] = Replicon IC50 values are determined by firefly luciferase signal, bicistronic replicon, 2 days, read-out: Replicon IC5Os

Compound | IC50 (Hepatitis C virus, 48 h, read-out: Replicon IC5Os μM) [µM] | IC50 [1] [µM]
CC(=O)OCc1c(OC(C)=O)ccc2c([N+](=O)[O-])c(C)n(-c3ccc(C)cc3)c12 [Compound 1] | > 2 | 
COc1ccc(-n2c(C)c([N+](=O)[O-])c3cc(CN(C)C)c(O)cc32)cc1 [Compound 3] |  | > 2
CC(C)n1cc(C#N)c2ccc(O)cc21 [Compound 6] |  | > 2
COc1ccc2c(C#N)cn(-c3ccc(C)c(C)c3)c2c1 [Compound 8] |  | 0.5 to 2
CCCCOc1ccc2c(C#N)cn(CC)c2c1 [Compound 11] |  | > 2
CCn1cc(C#N)c2ccc(OCc3ccccc3)cc21 [Compound 12] |  | 0.5 to 2
CCOC(=O)c1cn(CC)c2cc(OC)ccc12 [Compound 17] |  | > 2
CCn1cc(C#N)c2ccc(OC(F)F)cc21 [Compound 18] |  | > 2
CCn1c(-c2ccoc2)c(C#N)c2ccc(OC)cc21 [Compound 20] |  | > 2
CCn1c(-c2ccccc2)c(C#N)c2ccc(OC)cc21 [Compound 21] |  | > 2
CCn1cc(C#N)c2ccc(-n3cccc3)cc21 [Compound 27] |  | 0.5 to 2
CCn1cc(-c2noc(C3CC3)n2)c2ccc(OC)cc21 [Compound 29] |  | > 2
CCNc1c(C(=O)OC)c2ccc([N+](=O)O)cc2n1CC [Compound 30] |  | > 2
CCn1cc(C(=O)c2ccccc2)c2cc(OC)ccc21 [Compound 32] |  | > 2
CCn1cc(C(=O)c2ccccc2)c2ccc(OC)cc21 [Compound 33] |  | > 2
CCC(=O)c1cn(CC)c2cc(OC)ccc12 [Compound 34] |  | > 2
CCn1cc(C(=O)C(C)C)c2ccc(OC)cc21 [Compound 37] |  | > 2
CCn1cc(C(=O)c2cccc(OC)c2)c2ccc(OC)cc21 [Compound 38] |  | > 2
CCn1cc(C(=O)c2cccc(OC)c2)c2cc(OC)ccc21 [Compound 39] |  | > 2
COc1ccc(-c2c[nH]c3ccc([N+](=O)O)cc23)cc1 [Compound 40] |  | > 2
COc1ccc(-n2cc(C(C)=O)c3cc(OC)ccc32)cc1 [Compound 42, 1-[5-methoxy-1-(4-methoxyphenyl)-1-H-indol-3-yl]-ethanone] |  | > 2
CC(C)n1cc(C#N)c2cc3c(cc21)OCO3 [Compound 43] |  | > 2
CCOC(=O)c1c(C)n(-c2ccc(OC)cc2)c2cc(OC(F)F)ccc12 [Compound 46] |  | > 2
COc1ccc(-n2cc(C(=O)c3ccc(F)cc3)c3ccc(OC)cc32)cc1 [Compound 47] |  | > 2

Compound | IC50 (Hepatitis C virus, 48 h, read-out: Replicon IC5Os μM) [µM] | IC50 [1] [µM]
N#Cc1cn(C(F)F)c2cc(OC(F)F)ccc12 [Compound 50] |  | > 2
CC(C)n1cc(C#N)c2cc3c(cc21)OCCO3 [Compound 52] |  | > 2
CCn1cc(-c2ccno2)c2ccc(C(=O)OC)cc21 [Compound 60] |  | > 2
CCn1cc(-c2ccn[nH]2)c2ccc(C(=O)OC)cc21 [Compound 61] |  | > 2
CCOC(=O)c1cn(CC)c2cc3c(cc12)OCO3 [Compound 62] |  | > 2
CCn1c(-c2ccc(C(C)(C)C)cc2)c(C#N)c2ccc(OC)cc21 [Compound 63] |  | > 2
CCn1c(C#Cc2ccccc2)c(C#N)c2ccc(OC)cc21 [Compound 64] |  | > 2
CCn1c(C#Cc2ccc(OC)cc2)c(C#N)c2ccc(OC)cc21 [Compound 65] |  | 0.5 to 2
CCn1c(C#Cc2cccc(OC)c2)c(C#N)c2ccc(OC)cc21 [Compound 66] |  | > 2
CCn1c(C#Cc2ccc(C)cc2)c(C#N)c2ccc(OC)cc21 [Compound 68] |  | 0.5 to 2
CCOc1ccc(-c2c(C#N)c3ccc(OC)cc3n2CC)cc1 [Compound 70] |  | > 2
CCn1c(-c2ccc(C(=O)N(C)C)cc2)c(C#N)c2ccc(OC)cc21 [Compound 71] |  | > 2
CCn1c(-c2ccc(OC)c(F)c2)c(C#N)c2ccc(OC)cc21 [Compound 74] |  | > 2
COc1ccc(-c2c(C#N)c3ccc(OC)cc3n2C)cc1 [Compound 76] |  | > 2
CCOc1ccc(-c2c(C#N)c3ccc(OC)cc3n2C)cc1 [Compound 77] |  | > 2
CCn1cc(-c2nccs2)c2ccc(C(=O)OC)cc21 [Compound 78] |  | > 2
CCn1c(-c2ccc(C(C)C)cc2)c(C#N)c2ccc(C(N)=O)cc21 [Compound 79] |  | > 2
CCn1c(-c2ccc(NS(=O)(=O)CC)cc2)c(C#N)c2ccc(OC)cc21 [Compound 83] |  | < 0.5
COc1ccc2c(C#N)c(-c3ccc(NS(C)(=O)=O)cc3)n(C3CCC3)c2c1 [Compound 87] |  | < 0.5
COc1ccc(-n2cc(C#N)c3ccc(C(=O)NO)cc32)cc1 [Compound 89] |  | 0.5 to 2
COc1ccc(-n2cc(C#N)c3ccc(NC(=O)OC(C)(C)C)cc32)cc1 [Compound 90] |  | > 2
COc1ccc(C#Cc2c(C#N)c3ccc(OC)cc3n2C)cc1 [Compound 92] |  | > 2
COc1ccc2c(C#N)c(C#Cc3ccc(F)cc3)n(C)c2c1 [Compound 93] |  | > 2
COc1ccc(-n2cc(C#N)c3ccc(NC(=O)NC(C)(C)C)cc32)cc1 [Compound 98] |  | > 2

Compound | IC50 (Hepatitis C virus, 48 h, read-out: Replicon IC5Os μM) [µM] | IC50 [1] [µM]
COc1ccc2c(C#N)c(-c3cccc(C)c3)n(C)c2c1 [Compound 100] |  | > 2
COc1ccc(-n2cc(C#N)c3ccc(F)cc32)cc1 [Compound 102] |  | > 2
COc1ccc(-n2cc(C#N)c3ccc(C)cc32)cc1 [Compound 103] |  | > 2
COc1ccc(-n2cc(-c3nc(C(C)(C)C)cs3)c3ccc(C(N)=O)cc32)cc1 [Compound 104] |  | 0.5 to 2
COC(=O)c1ccc2c(-c3nc(-c4ccncc4)cs3)cn(-c3ccc(OC)cc3)c2c1 [Compound 105] |  | > 2
COc1ccc(-n2cc(-c3nc(-c4ccc(Cl)c(Cl)c4)cs3)c3ccc(C(N)=O)cc32)cc1 [Compound 106] |  | > 2
CCn1cc(C#N)c2cc(Br)ccc21 [Compound 108] |  | > 2
CCCn1cc(C#N)c2cc(Br)ccc21 [Compound 109] |  | > 2
CCOC(=O)c1ccc(-c2c(C#N)c3ccc(OC)cc3n2CC)cc1 [Compound 110] |  | 0.5 to 2
Cc1ccc2c(C#N)cn(-c3ccc4c(c3)OCO4)c2c1 [Compound 112] |  | 0.5 to 2
CCn1c(-c2ccc(C(=O)N3CCCC3)cc2)c(C#N)c2ccc(OC)cc21 [Compound 113] |  | > 2
CCn1c(-c2ccc(C(=O)N3CCOCC3)cc2)c(C#N)c2ccc(OC)cc21 [Compound 114] |  | > 2
N#Cc1c[nH]c2cc(Cl)ccc12 [Compound 115] |  | > 2
COc1ccc(-n2cc(C#N)c3ccccc32)cc1 [Compound 117] |  | > 2
CCn1cc(C#N)c2ccc(Cl)cc21 [Compound 118] |  | 0.5 to 2
CCn1c(-c2ccc(NC(=O)OCc3ccccc3)cc2)c(C#N)c2ccc(OC)cc21 [Compound 122] |  | > 2
CCn1cc(C#N)c2ccc(C(F)(F)F)cc21 [Compound 123] |  | > 2
Cc1ccc2c(C#N)c(C)n(-c3ccc4c(c3)OCO4)c2c1 [Compound 125] |  | 0.5 to 2
CCn1cc(C#N)c2ccc(Br)cc21 [Compound 126] |  | > 2
COc1ccc(-n2cc(C#N)c3ccc(Br)cc32)cc1 [Compound 127] |  | > 2
CCn1c(C#Cc2cccc3ccccc23)c(C#N)c2ccc(OC)cc21 [Compound 133] |  | 0.5 to 2
CCn1c(C#Cc2ccccc2Br)c(C#N)c2ccc(OC)cc21 [Compound 136] |  | 0.5 to 2
